According to PMC7957563, “The Novel benzamide Derivative, VKNG-2, Restores the Efficacy of Chemotherapeutic Drugs in Colon Cancer Cell Lines by Inhibiting the ABCG2 Transporter” (International Journal of Molecular Sciences, 2021):

Target: T1, ABCG2 transporter (Homo sapiens, UniProt Q9UNQ0)
T1 construct: ABCG2-overexpressing cell membranes
T1 sequence (Q9UNQ0 1-655): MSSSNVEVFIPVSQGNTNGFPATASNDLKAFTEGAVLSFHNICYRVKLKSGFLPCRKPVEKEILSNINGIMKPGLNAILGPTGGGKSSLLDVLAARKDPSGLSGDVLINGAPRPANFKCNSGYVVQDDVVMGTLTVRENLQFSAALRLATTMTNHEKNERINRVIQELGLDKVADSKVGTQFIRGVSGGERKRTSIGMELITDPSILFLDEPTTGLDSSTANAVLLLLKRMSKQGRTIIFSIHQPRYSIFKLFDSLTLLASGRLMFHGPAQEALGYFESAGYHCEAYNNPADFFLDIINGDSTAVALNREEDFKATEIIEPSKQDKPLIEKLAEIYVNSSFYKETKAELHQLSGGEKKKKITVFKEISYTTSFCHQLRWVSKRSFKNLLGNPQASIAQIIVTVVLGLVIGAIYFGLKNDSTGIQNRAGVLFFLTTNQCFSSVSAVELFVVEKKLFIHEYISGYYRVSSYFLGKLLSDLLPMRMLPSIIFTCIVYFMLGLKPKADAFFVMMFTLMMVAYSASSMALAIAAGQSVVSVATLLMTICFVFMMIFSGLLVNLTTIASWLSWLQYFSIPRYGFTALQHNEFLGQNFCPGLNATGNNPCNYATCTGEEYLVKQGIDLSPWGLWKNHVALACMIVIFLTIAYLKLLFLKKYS
Experiment: vanadate-sensitive ATPase stimulation in ABCG2-overexpressing membranes; [3H]-mitoxantrone efflux inhibition in S1-M1-80 cells
Format: biochemical

CCCc1ccc(NC(=O)c2ccccc2NC(=O)Nc2cccc([N+](=O)[O-])c2)cc1 [VKNG-2, 2-(3-(3-Nitrophenyl)ureido)-N-(4-propylphenyl)benzamide] gave an EC50 of 2300 nM.
